Source: ChEMBL document CHEMBL1135650, “Synthesis of classical and nonclassical, partially restricted, linear, tricyclic 5-deaza antifolates” (J Med Chem, 2002)

T1: Dihydrofolate reductase (Pneumocystis carinii) (UniProt P16184)
T1 sequence (whole entry): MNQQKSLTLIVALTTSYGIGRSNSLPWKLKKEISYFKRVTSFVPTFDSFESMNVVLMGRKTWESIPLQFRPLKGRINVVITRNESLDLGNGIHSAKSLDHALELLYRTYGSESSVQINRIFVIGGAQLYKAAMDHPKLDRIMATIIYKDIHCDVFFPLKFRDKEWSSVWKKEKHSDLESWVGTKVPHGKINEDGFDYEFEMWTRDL

T2: Dihydrofolate reductase (Homo sapiens, UniProt P00374)
T2 sequence (P00374 whole entry): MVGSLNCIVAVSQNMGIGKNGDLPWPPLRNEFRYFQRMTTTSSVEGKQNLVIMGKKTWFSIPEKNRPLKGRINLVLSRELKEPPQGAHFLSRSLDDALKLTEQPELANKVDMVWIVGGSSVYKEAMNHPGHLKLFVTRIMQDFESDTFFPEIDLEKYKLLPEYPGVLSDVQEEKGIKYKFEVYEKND

T3: Dihydrofolate reductase (Pneumocystis carinii, UniProt P16184)
T3 sequence (P16184 whole entry): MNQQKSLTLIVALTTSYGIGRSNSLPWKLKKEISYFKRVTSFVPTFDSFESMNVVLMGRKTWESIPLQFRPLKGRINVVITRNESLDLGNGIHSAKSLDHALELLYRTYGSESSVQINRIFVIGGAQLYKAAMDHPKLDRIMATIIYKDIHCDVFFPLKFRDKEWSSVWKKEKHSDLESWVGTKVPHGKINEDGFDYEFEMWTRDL

T4: Bifunctional dihydrofolate reductase-thymidylate synthase (Toxoplasma gondii, UniProt Q07422)
T4 sequence (Q07422 whole entry): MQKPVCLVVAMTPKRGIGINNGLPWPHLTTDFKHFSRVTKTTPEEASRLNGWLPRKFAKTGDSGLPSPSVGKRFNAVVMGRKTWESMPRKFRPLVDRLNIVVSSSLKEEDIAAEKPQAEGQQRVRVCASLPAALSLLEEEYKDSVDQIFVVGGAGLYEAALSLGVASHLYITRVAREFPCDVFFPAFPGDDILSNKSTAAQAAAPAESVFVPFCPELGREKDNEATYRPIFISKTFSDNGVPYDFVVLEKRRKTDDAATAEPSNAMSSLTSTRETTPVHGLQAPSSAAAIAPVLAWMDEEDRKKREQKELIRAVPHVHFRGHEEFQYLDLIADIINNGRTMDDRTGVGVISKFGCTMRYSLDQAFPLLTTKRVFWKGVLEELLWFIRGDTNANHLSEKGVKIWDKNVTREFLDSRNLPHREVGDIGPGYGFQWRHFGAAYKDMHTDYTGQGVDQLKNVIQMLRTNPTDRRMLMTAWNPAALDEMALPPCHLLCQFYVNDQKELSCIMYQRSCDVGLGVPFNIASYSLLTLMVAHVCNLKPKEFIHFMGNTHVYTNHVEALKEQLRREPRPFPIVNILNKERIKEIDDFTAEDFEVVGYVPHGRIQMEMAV

B1: Folylpolyglutamate synthase, mitochondrial (Homo sapiens), Q05932 (protein)
chain: MSRARSHLRAALFLAAASARGITTQVAARRGLSAWPVPQEPSMEYQDAVRMLNTLQTNAGYLEQVKRQRGDPQTQLEAMELYLARSGLQVEDLDRLNIIHVTGTKGKGSTCAFTECILRSYGLKTGFFSSPHLVQVRERIRINGQPISPELFTKYFWRLYHRLEETKDGSCVSMPPYFRFLTLMAFHVFLQEKVDLAVVEVGIGGAYDCTNIIRKPVVCGVSSLGIDHTSLLGDTVEKIAWQKGGIFKQGVPAFTVLQPEGPLAVLRDRAQQISCPLYLCPMLEALEEGGPPLTLGLEGEHQRSNAALALQLAHCWLQRQDRHGAGEPKASRPGLLWQLPLAPVFQPTSHMRLGLRNTEWPGRTQVLRRGPLTWYLDGAHTASSAQACVRWFRQALQGRERPSGGPEVRVLLFNATGDRDPAALLKLLQPCQFDYAVFCPNLTEVSSTGNADQQNFTVTLDQVLLRCLEHQQHWNHLDEEQASPDLWSAPSPEPGGSASLLLAPHPPHTCSASSLVFSCISHALQWISQGRDPIFQPPSPPKGLLTHPVAHSGASILREAAAIHVLVTGSLHLVGGVLKLLEPALSQ

Legend:
[1] = target: T1, Dihydrofolate reductase (Pneumocystis carinii); assay: Percent Inhibition activity against pneumocystis carinii Dihydrofolate reductase; conditions: concentration not given here
Dihydrofolate reductase [2] = target: T2, Dihydrofolate reductase
Description: Inhibitory activity against recombinant human Dihydrofolate reductase

Dihydrofolate reductase [3] = target: T3, Dihydrofolate reductase
Description: Inhibitory activity against pneumocystis carinii Dihydrofolate reductase

[4] = target: T4, Bifunctional dihydrofolate reductase-thymidylate synthase
Description: Inhibitory activity against Toxoplasma gondii (tg) Dihydrofolate reductase (DHFR)

[5] = Concentration required to decrease cell growth by 50% in methotrexate-resistant CCRF-CEM human leukemia subline (R30dm); format: functional, cell-based
[6] = Concentration required to decrease cell growth by 50% in methotrexate-resistant CCRF-CEM human leukemia subline (R1); format: functional, cell-based
[7] = Concentration required to decrease cell growth by 50% in methotrexate-resistant CCRF-CEM human leukemia subline (R2); format: functional, cell-based
[8] = test system: Panel leukemia (Carcinoma cell lines); assay: In vitro inhibitory activity against the growth of tumor cells in leukemia cells;Value ranges from (10e-6 to 10e-7); format: functional; conditions: Homo sapiens
[9] = Kinetic constant Vmax relative to aminopterin; format: ADME
CCRF-CEM = assay: Concentration required to decrease cell growth by 50% in CCRF-CEM human leukemia cell line; format: functional, cell-based
[10] = Selectivity ratio as the ratio of IC50 value against recombinant human (rh) DHFR to that of Toxoplasma gondii (tg) DHFR.; format: functional
[11] = Selectivity ratio as the ratio of IC50 value against recombinant human (rh) DHFR to that of Escherichia coli (ec) DHFR.; format: functional
[12] = Selectivity ratio as the ratio of IC50 value against recombinant human (rh) DHFR to that of pneumocystis carinii (pc ) DHFR.; format: functional
[13] = Kinetic parameter Vmax of the compound; format: ADME
[14] = substrate: Nc1nc(N)c2nc(CNc3ccc(C(=O)N[C@@H](CCC(=O)O)C(=O)O)cc3)cnc2n1; assay: (§1) Ability to act as a substrate for human folyglutamate synthetase (FPGS)
[15] = substrate: Nc1nc(N)c2cc3c(nc2n1)CCN(Cc1ccc(C(=O)N[C@@H](CCC(=O)O)C(=O)O)cc1)C3; assay: as §1

| Molecule | IC50 (Dihydrofolate reductase [2]) | IC50 (Dihydrofolate reductase [3]) | IC50 [4] | GI50 [8] | other results |
| --- | --- | --- | --- | --- | --- |
| COc1ccc(CN2CCc3nc4nc(N)nc(N)c4cc3C2)cc1 | 27000 nM | > 15000 nM | 2900 nM | – | inhibition [1]: 35% |
| Nc1nc(N)c2cc3c(nc2n1)CCN(Cc1ccc(C(=O)N[C@@H](CCC(=O)O)C(=O)O)cc1)C3 | 5400 nM | 1800 nM | – | 1000 nM | EC50 [5]: 1900 nM; EC50 [6]: > 10000 nM; EC50 [7]: > 10000 nM; Vmax rel [9]: 1.07; EC50 (CCRF-CEM): 771 nM |
| Nc1nc(N)c2cc3c(nc2n1)CCN(C(=O)OCc1ccccc1)C3 | 30000 nM | > 15000 nM | 22000 nM | 1000 nM | inhibition [1]: 35%; Ratio [10]: 1.3; Ratio [11]: 10 |
| Nc1nc(N)c2cc3c(nc2n1)CCN(Cc1ccc(Cl)cc1Cl)C3 | 1300 nM | 4000 nM | 2100 nM | – | – |
| Nc1nc(N)c2cc3c(nc2n1)CCN(Cc1ccc(Cl)c(Cl)c1)C3 | > 26000 nM | 5000 nM | 5100 nM | – | Ratio [12]: > 5.2; Ratio [10]: > 5; Ratio [11]: > 8.6 |
| CN(Cc1cnc2nc(N)nc(N)c2n1)c1ccc(C(=O)N[C@@H](CCC(=O)O)C(=O)O)cc1 [METHOTREXATE] | – | – | – | – | EC50 [5]: 16 nM; EC50 [7]: 1700 nM; Vmax [9]: 0.82; EC50 (CCRF-CEM): 12 nM |
| Nc1nc(N)c2cc3c(nc2n1)CCN(Cc1ccccc1)C3 | 32000 nM | 16000 nM | 1400 nM | 1000 nM | – |
| Nc1nc(N)c2nc(CNc3ccc(C(=O)N[C@@H](CCC(=O)O)C(=O)O)cc3)cnc2n1 [AMINOPTERIN] | – | – | – | – | Vmax [13]: 1 |
| COc1cc(CN2CCc3nc4nc(N)nc(N)c4cc3C2)cc(OC)c1 | 22000 nM | 14000 nM | 2700 nM | – | – |
| B1 | – | – | – | – | Km [14]: 2.15 µM; Km [15]: 27.3 µM |
